The assay concerns the target T1, human PcaR (Homo sapiens, UniProt P41180).
T1 construct: expressed in transfected cells; host or cells: CCL39 fibroblasts (hamster lung fibroblast line), stably transfected
T1 sequence (P41180 20-1078): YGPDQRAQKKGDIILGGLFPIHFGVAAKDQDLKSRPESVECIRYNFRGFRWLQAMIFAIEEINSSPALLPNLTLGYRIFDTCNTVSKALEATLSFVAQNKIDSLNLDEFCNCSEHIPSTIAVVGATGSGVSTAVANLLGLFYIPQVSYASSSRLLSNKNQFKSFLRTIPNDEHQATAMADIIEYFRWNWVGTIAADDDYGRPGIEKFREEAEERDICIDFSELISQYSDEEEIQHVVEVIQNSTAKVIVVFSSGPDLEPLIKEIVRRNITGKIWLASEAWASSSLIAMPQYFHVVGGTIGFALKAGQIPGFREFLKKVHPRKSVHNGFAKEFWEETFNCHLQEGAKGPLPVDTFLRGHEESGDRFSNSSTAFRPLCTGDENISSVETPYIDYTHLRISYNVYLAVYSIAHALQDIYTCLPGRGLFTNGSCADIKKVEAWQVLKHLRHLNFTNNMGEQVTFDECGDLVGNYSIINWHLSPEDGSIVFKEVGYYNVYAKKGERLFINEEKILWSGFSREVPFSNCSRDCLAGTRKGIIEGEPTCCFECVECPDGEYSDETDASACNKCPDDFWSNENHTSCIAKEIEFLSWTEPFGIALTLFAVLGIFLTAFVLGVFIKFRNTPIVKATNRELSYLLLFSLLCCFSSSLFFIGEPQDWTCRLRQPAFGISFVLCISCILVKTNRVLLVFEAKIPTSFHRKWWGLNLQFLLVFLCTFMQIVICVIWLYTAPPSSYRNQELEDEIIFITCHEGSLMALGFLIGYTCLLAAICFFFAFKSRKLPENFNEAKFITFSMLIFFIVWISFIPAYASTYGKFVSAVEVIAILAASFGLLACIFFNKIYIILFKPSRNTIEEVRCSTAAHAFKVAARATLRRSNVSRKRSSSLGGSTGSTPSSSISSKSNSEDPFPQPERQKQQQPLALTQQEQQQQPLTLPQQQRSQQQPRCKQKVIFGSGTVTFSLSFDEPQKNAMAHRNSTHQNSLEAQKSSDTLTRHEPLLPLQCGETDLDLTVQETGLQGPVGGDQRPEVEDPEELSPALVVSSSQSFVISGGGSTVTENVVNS
Nature of the assay: Inhibition of intracellular calcium transients stimulated by extracellular calcium (assay for intracellular free calcium). Type of assay: cell-based. As to conditions: CCL39 fibroblasts stably transfected with human PcaR; Fluo-3 AM; stimulated with calcium 2.5 mM final; read-out: IC50 (nm) (range in which compound fall). The procedure: Inhibition of Intracellular Calcium Transients Stimulated by Extracellular Calcium
In the test system, which is described in detail below, the following ranges of IC50 values are found:
Assay for Intracellular Free Calcium:
A method to determine antagonism at the PcaR consists in measuring the inhibition of intracellular calcium transients stimulated by extracellular calcium.
CCL39 fibroblasts stably transfected with human PcaR are seeded at 40,000 cells/well into 96-well Viewplates and incubated for 24 hours. Medium is then removed and replaced with fresh medium containing 2 μM Fluo-3 AM (Molecular Probes, Leiden, The Netherlands), In routine experiments, cells are incubated at 37° C., 5% CO2 for 1 h. Afterwards, plates are washed twice with mHBS and wells are refilled with 100 μl mHBS containing the test compounds. Incubation is continued at room temperature for 15 minutes. To record changes of intracellular free calcium, plates are transferred to fluorescence-imaging plate reader (Molecular Devices, Sunnyvale, Calif., USA). A baseline consisting in 5 measurements of 0.4 seconds each (laser excitation 488 nm) is recorded. Cells are then stimulated with calcium (2.5 mM final), and fluorescence changes recorded over a period of 3 minutes.
For orientation: Calcium assays in cells follow changes in intracellular calcium, usually with a dye or a luminescent sensor.

As a reminder, the IC50 is the concentration that gives 50% inhibition. With `C#CCOc1ccc2nc(C(=O)c3ccc4c(c3)OCCO4)nc(-c3ccc(C(C)C)cc3)c2c1` [Example 1, (2,3-Dihydro-benzo[1,4]dioxin-6-yl)-[4-(4-isopropyl-phenyl)-6-propargyloxy-quinazolin-2-yl]-methanone], the IC50 was in the range of 0.5 to 1 nM.

Take `C#CCOc1ccc2nc(C(=O)c3ccc4c(c3)OCO4)nc(-c3ccc(C(C)C)cc3)c2c1` [Example 2, Benzo[1,3]dioxol-5-yl-[4-(4-isopropyl-phenyl)-6-propargyloxy-quinazolin-2-yl]-methanone]: the IC50 was 0.2 to 0.5 nM.

Take `C#CCOc1ccc2nc(C(=O)c3ccc4c(c3)CCO4)nc(-c3ccc(C(C)C)cc3)c2c1` [Example 3, (2,3-Dihydro-benzofuran-5-yl)-[4-(4-isopropyl-phenyl)-6-propargyloxy-quinazolin-2-yl]-methanone]: the IC50 is 0.2 to 0.5 nM.

Consider `C#CCOc1ccc2nc(C(=O)c3ccc4c(c3)OC=CO4)nc(-c3ccc(C(C)C)cc3)c2c1` [Example 4, Benzo[1,4]dioxin-6-yl-[4-(4-isopropyl-phenyl)-6-propargyloxy-quinazolin-2-yl]-methanone], for which the IC50 lay within 0.5 to 1 nM.

For the compound `C#CCOc1ccc2nc(C(=O)c3ccc4c(c3)CCC4)nc(-c3ccc(C(C)C)cc3)c2c1` [Example 5, Indan-5-yl-[4-(4-isopropyl-phenyl)-6-propargyloxy-quinazolin-2-yl]-methanone], the IC50 fell in the range of 0.5 to 1 nM.

Turning to `C#CCOc1ccc2nc(C(=O)c3ccc4c(c3)OCC4)nc(-c3ccc(C(C)C)cc3)c2c1` [Example 6, (2,3-Dihydro-benzofuran-6-yl)-[4-(4-isopropyl-phenyl)-6-propargyloxy-quinazolin-2-yl]-methanone], the IC50 is 0.2 to 0.5 nM.

Consider `C#CCOc1ccc2nc(C(=O)c3ccc4c(c3)OCCN4C)nc(-c3ccc(C(C)C)cc3)c2c1` [Example 7, [4-(4-Isopropyl-phenyl)-6-propargyloxy-quinazolin-2-yl]-(4-methyl-3,4-dihydro-2H-benzo[1,4]oxazin-7-yl)-methanone], for which the concentration for half-maximal inhibition (IC50) fell in the range of 0.2 to 0.5 nM.

Regarding `C#CCOc1ccc2nc(C(=O)c3ccc4occc4c3)nc(-c3ccc(C(C)C)cc3)c2c1` [Example 8, Benzofuran-5-yl-[4-(4-isopropyl-phenyl)-6-propargyloxy-quinazolin-2-yl]-methanone], the IC50 was in the range of 0.2 to 0.5 nM.

For the compound `C#CCOc1ccc2nc(C(=O)c3ccc4c(c3)C(C)(C)CCC4(C)C)nc(-c3ccc(C(C)C)cc3)c2c1` [Example 9, [4-(4-Isopropyl-phenyl)-6-propargyloxy-quinazolin-2-yl]-(5,5,8,8-tetramethyl-5,6,7,8-tetrahydro-naphthalen-2-yl)-methanone], the IC50 was in the range of 1 to 5 nM.

Consider `C#CCOc1ccc2nc(C(=O)c3ccc4c(c3)N(C)CCO4)nc(-c3ccc(C(C)C)cc3)c2c1` [Example 10, [4-(4-Isopropyl-phenyl)-6-propargyloxy-quinazolin-2-yl]-(4-methyl-3,4-dihydro-2H-benzo[1,4]oxazin-6-yl)-methanone], for which the 50% inhibitory concentration (IC50) lay in the range of 1 to 5 nM.

On to `C#CCOc1ccc2nc(C(=O)c3nc4ccc(OC)cc4s3)nc(-c3ccc(C(C)C)cc3)c2c1` [Example 11, [4-(4-Isopropyl-phenyl)-6-propargyloxy-quinazolin-2-yl]-(6-methoxy-benzo-thiazol-2-yl)-methanone], for which the IC50 lay within 5 to 10 nM.

`C#CCOc1ccc2nc(C(=O)c3ccc4c(c3)-c3ccccc3C4=O)nc(-c3ccc(C(C)C)cc3)c2c1` [Example 12, 3-[4-(4-Isopropyl-phenyl)-6-propargyloxy-quinazolin-2-carbonyl]-fluoren-9-one]: the IC50 fell in the range of 0.2 to 0.5 nM.

The record behind these values is US20100099670A1, “Benzoquinazoline derivatives” (priority 2007, published 2010).
